The subject of one test is CACO2. As to the kind of experiment: Modified MTT assay, colon panel CACO2. The class given is cell-based. The conditions noted are these: Homo sapiens, Caco-2, MMR proficient, p53 mut, read-out: MMR201 IC50. The protocol:
(§1) Relative drug sensitivities (Resistance Factor) and IC50 values were determined by a modified MTT assay (see, e.g., Mosmann, 1983; Plumb et al., 1989), as described below: • (1) Trypsinise a sub-confluent monolayer culture and collect cells in growth medium containing serum. Centrifuge the suspension (200 g, 5 minutes) to pellet cells, re-suspend in growth medium, and count cells. Dilute cells to a density of 5×10^3 cells/mL allowing 60 mL of cell suspension for 3 microtitre plates. Transfer cell suspension to a 10 cm petri dish, and with a multichannel pipette add 200 μL to each well of the central 10 columns of a flat bottomed 96-well plate (80 wells per plate) starting with column 2 and ending with column 11. Add 200 μL of growth medium to the 8 wells in columns 1 and 12. […] Pipette 6 mL of growth medium in to each of 7 universal containers (30 mL). Prepare 10 mL of the highest concentration of the drug and transfer 1.5 mL of this solution to the first universal container. Mix and then transfer 1.5 mL to the next universal container. Continue until the seventh universal container is reached. The concentrations should be chosen so that the highest concentration kills most of the cells and the lowest kills none of the cells.
On the technique in general: Formazan colour is commonly taken as a measure of viable cells.

The next test relates to LOVO (MSH2). As to the kind of experiment: Modified MTT assay, colon panel LOVO. The class given is cell-based. The conditions noted are these: Homo sapiens, MMR deficient, p53 wt, read-out: MMR201 IC50. On the procedure: as §1
The subject of test [1] is HCT116 human colon tumour cell line grown as xenograft. As to the kind of experiment: Xenograft study, HCT116 in nude mice. Format: in vivo. The conditions noted are these: single bolus day 0, MMR201 1 or 2 mg/kg i.v. (tolerated doses), cisplatin 6 mg/kg i.p. (maximum tolerated dose). The protocol: (§2) For xenograft experiments, tumour cells were injected into the flanks of athymic nude mice and allowed to establish until palpable tumour could be detected. Following single bolus injection of drug, tumour growth was monitored using calliper measurement of tumour size and calculation of tumour volume.
(§3) Cells in exponential phase of growth were harvested with trypsin and re-suspended in phosphate buffered saline. About 10^7 cells in a total volume of 200 μL of PBS were injected subcutaneously in the right flank of CD1 nude mice. They were used for experiments after about 7 to 10 days by which time the mean tumour diameter was about 0.5 cm.
(§4) Mice were weighed and tumour volumes measured. The mice were randomised in groups of 6 and treated either with the drug or with the solvent alone. The drug was dissolved in DMSO and diluted in sterile PBS just before injection to give a final DMSO concentration of 1%. The drugs solution was prepared such that the injection volume was 5 μL per gram body weight. […]
(§5) Mice were then weighed daily and tumour volumes estimated from two measurements of the diameter taken at a 90° angle. The volume was determined by the formula: v=D^3/6×π, where v=volume and D is the mean diameter. Results (Mean and SEM) are expressed as the relative tumour volume, which is the tumour volume on any given day divided by the initial tumour volume calculated for each mouse.

The subject of a further test is p53. As to the kind of experiment: Induction of p53 expression. The class given is cell-based. The conditions noted are these: at doses that were shown to induce apoptosis.
The next test deals with PARP cleavage. Briefly: Apoptosis as determined by PARP cleavage. The class given is cell-based.
The subject of test [2] is A2780/cp70 human ovarian, cisplatin resistant, cell line grown as xenograft. Briefly: Xenograft study, A2780/cp70 in nude mice. The class given is in vivo. The conditions noted are these: single bolus day 0, MMR201 1 mg/kg i.v. (tolerated dose), cisplatin 6 mg/kg i.p. (maximum tolerated dose). On the procedure:
as §2, §3, §4, §5

Consider `CC[n+]1c(/C=C2\Sc3oc4ccccc4c3N2C)ccc2cc(C)ccc21.[I-]` [MMR201], for which the figures for the half-inhibitory concentration (IC50) in the test with CACO2 and in the test on LOVO (MSH2) were 0.474 ± 0.016 µM and 0.431 ± 0.0112 µM, respectively. In test [1], the “Tumour growth (relative tumour volume) of HCT116 xenograft” value is on record as “inhibits growth”. In the test with p53, the “Induction of p53 expression” value is “does not induce expression of p53”. Moreover, in the test on PARP cleavage (MLH1 negative cells, PARP cleavage, 24 hours), the “Apoptosis in MLH1 negative cells” value was “increased apoptosis at lower drug concentrations”. Also, the “Apoptosis as determined by PARP cleavage” value with PARP cleavage (incubation for 24 hours) was “induces apoptosis”. Further, the “Tumour growth (relative tumour volume) of A2780/cp70 xenograft” value in test [2] is “can inhibit growth”.

The IC50 is the concentration that inhibits the measured activity by half.

(Values after patent US20090247579A1, “2-[3H-THIAZOL-2-YLIDINEMETHYL]PYRIDINES AND RELATED COMPOUNDS AND THEIR USE” (CANCER RESEARCH TECHNOLOGY LIMITED, priority 2006, published 2009).)
